Values after ≈ are worked out from the molar mass of the structure shown.
Assays:
[1] = biological target: T1, Human immunodeficiency virus type 1 reverse transcriptase (Human immunodeficiency virus 1, UniProt Q72547); test: Inhibition of wildtype recombinant HIV-1 Reverse transcriptase incubated for 40 mins by spectrofluorometric analysis
[2] = Acute toxicity in SPF ICR mouse assessed as pathological change in liver at 2 mg/kg, IG measured on day 14; type: organism-based; details: in vivo, po, 336 h, time 14 day
[3] = Acute toxicity in SPF ICR mouse assessed as heart damage at 2 mg/kg, IG measured on day 14; type: organism-based; details: in vivo, po, 336 h, time 14 day
[4] = Acute toxicity in SPF ICR mouse at 2 mg/kg, IG measured for 2 weeks; type: organism-based; details: in vivo, po, 336 h
[5] = Acute toxicity in SPF ICR mouse assessed as spleen damage at 2 mg/kg, IG measured on day 14; type: organism-based; details: in vivo, po, 336 h, time 14 day
[6] = Acute toxicity in SPF ICR mouse assessed as pathological change in brain at 2 mg/kg, IG measured on day 14; type: organism-based; details: in vivo, po, 336 h, time 14 day
[7] = Acute toxicity in SPF ICR mouse assessed as pathological change in kidney at 2 mg/kg, IG measured on day 14; type: organism-based; details: in vivo, po, 336 h, time 14 day
[8] = Acute toxicity in SPF ICR mouse assessed as mortality at 2 mg/kg, IG measured for 2 weeks; type: organism-based; details: in vivo, po, 336 h
[9] = Cytotoxicity against human MT4 cells assessed as reduction in cell viability incubated for 5 days by MTT assay; type: toxicity, cell-based; details: MT4 cells, time 5 day
[10] = Acute toxicity in SPF ICR mouse assessed as pathological change in heart at 2 mg/kg, IG measured on day 14; type: organism-based; details: in vivo, po, 336 h, time 14 day
[11] = biological target: Cytochrome P450 2C19 (Homo sapiens, UniProt P33261); test: Inhibition of CYP2C19 in human liver microsome preincubated with compound for 10 minutes followed NADPH addition and measured after 15 mins by LC-MS/MS analysis; type: ADME, microsomes
Chain of Cytochrome P450 2C19 (P33261 whole entry): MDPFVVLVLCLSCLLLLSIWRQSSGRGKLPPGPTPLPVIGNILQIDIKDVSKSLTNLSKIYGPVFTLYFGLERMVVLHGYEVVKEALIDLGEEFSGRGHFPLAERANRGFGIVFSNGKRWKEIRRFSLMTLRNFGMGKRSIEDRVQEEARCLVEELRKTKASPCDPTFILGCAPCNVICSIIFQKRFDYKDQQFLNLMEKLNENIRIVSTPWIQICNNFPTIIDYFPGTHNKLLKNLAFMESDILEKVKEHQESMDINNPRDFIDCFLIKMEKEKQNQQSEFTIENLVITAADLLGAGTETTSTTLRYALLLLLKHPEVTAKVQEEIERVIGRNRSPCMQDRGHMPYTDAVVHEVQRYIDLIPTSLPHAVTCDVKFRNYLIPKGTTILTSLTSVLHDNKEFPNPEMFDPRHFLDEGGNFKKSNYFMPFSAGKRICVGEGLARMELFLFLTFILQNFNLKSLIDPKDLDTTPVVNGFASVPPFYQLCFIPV

[12] = Acute toxicity in SPF ICR mouse assessed as distress at 2 mg/kg, IG measured for 2 weeks; type: organism-based; details: in vivo, po, 336 h
[13] = Acute toxicity in SPF ICR mouse assessed as pathological change in spleen at 2 mg/kg, IG measured on day 14; type: organism-based; details: in vivo, po, 336 h, time 14 day
[14] = biological target: Cytochrome P450 2D6 (Homo sapiens, UniProt P10635); test: Inhibition of CYP2D6 in human liver microsome preincubated with compound for 10 minutes followed NADPH addition and measured after 15 mins by LC-MS/MS analysis; type: ADME, microsomes
Chain of Cytochrome P450 2D6 (P10635 whole entry): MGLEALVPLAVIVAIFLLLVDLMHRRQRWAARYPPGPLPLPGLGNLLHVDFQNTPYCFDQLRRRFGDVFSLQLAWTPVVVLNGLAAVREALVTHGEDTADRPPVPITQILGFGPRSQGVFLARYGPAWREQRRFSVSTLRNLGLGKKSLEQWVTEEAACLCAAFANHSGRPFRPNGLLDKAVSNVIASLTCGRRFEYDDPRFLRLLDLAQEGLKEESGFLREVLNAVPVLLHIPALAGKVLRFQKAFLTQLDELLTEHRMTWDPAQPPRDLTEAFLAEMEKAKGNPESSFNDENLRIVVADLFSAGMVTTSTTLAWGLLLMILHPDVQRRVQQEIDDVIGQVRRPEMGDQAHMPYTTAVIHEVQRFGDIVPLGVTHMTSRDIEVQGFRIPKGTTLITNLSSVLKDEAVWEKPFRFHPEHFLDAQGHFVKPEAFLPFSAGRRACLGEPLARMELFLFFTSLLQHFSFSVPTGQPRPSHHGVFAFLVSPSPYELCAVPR

[15] = biological target: T2, Cytochrome P450 1A2 (Homo sapiens, UniProt P05177); test: Inhibition of CYP1A2 in human liver microsome preincubated with compound for 10 minutes followed NADPH addition and measured after 15 mins by LC-MS/MS analysis; type: ADME, microsomes
T2 sequence (P05177 whole entry): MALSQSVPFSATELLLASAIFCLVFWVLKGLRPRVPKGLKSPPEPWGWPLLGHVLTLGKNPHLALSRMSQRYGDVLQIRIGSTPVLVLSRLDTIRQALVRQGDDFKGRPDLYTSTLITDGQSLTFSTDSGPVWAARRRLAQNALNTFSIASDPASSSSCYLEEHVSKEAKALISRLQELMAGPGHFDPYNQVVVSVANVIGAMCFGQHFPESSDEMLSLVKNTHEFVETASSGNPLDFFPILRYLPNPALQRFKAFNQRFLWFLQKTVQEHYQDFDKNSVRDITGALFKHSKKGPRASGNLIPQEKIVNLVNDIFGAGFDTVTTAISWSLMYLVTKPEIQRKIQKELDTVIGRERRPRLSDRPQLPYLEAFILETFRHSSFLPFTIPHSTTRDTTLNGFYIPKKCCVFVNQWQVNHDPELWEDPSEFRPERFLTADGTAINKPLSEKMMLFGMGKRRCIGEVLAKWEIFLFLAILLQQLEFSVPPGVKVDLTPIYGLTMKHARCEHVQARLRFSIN

[16] = test system: Human immunodeficiency virus 1; test: Antiviral activity against HIV-1 harboring RES056 mutant infected in human MT4 cells assessed as protection against virus-induced cytopathic effect incubated for 5 days by MTT assay; type: functional, organism-based; details: Human immunodeficiency virus 1, MT4, 120 h
[17] = Acute toxicity in SPF ICR mouse assessed as brain damage at 2 mg/kg, IG measured on day 14; type: organism-based; details: in vivo, po, 336 h, time 14 day
[18] = Acute toxicity in SPF ICR mouse assessed as abnormal behavior at 2 mg/kg, IG measured for 2 weeks; type: organism-based; details: in vivo, po, 336 h
[19] = test system: Human immunodeficiency virus 1; test: Antiviral activity against HIV-1 harboring L100I mutant infected in human MT4 cells assessed as protection against virus-induced cytopathic effect incubated for 5 days by MTT assay; type: functional, organism-based; details: Human immunodeficiency virus 1, MT4, 120 h
[20] = Solubility of compound in phosphate buffer at pH 7.4 incubated for 24 hrs by HPLC analysis; type: physicochemical
[21] = Acute toxicity in SPF ICR mouse assessed as pathological change in lung at 2 mg/kg, IG measured on day 14; type: organism-based; details: in vivo, po, 336 h, time 14 day
[22] = Selectivity index, ratio of CC50 for cytotoxicity against human MT4 cells assessed as reduction in cell viability to EC50 for antiviral activity against wild type HIV-1 IIIB infected in human MT4 cells assessed as protection against virus-induced cytopathic effect; type: toxicity, cell-based; details: MT4 cells, read-out: Ratio CC50/EC50
[23] = biological target: T1, Human immunodeficiency virus type 1 reverse transcriptase; test: Inhibition of HIV-1 reverse transcriptase
[24] = test system: Human immunodeficiency virus 1; test: Antiviral activity against HIV-1 harboring F227L/V106A double mutant infected in human MT4 cells assessed as protection against virus-induced cytopathic effect incubated for 5 days by MTT assay; type: functional, organism-based; details: Human immunodeficiency virus 1, MT4, 120 h
[25] = Acute toxicity in SPF ICR mouse assessed as change in body weight at 2 mg/kg, IG measured for 2 weeks; type: organism-based; details: in vivo, po, 336 h
[26] = biological target: Voltage-gated inwardly rectifying potassium channel KCNH2 (Homo sapiens, UniProt Q12809); test: Inhibition of hERG potassium channel stably expressed in CHO cells at -80 mV holding potential by whole-cell patch-clamp analysis; type: toxicity, cell-based
Chain of Voltage-gated inwardly rectifying potassium channel KCNH2 (Q12809 whole entry): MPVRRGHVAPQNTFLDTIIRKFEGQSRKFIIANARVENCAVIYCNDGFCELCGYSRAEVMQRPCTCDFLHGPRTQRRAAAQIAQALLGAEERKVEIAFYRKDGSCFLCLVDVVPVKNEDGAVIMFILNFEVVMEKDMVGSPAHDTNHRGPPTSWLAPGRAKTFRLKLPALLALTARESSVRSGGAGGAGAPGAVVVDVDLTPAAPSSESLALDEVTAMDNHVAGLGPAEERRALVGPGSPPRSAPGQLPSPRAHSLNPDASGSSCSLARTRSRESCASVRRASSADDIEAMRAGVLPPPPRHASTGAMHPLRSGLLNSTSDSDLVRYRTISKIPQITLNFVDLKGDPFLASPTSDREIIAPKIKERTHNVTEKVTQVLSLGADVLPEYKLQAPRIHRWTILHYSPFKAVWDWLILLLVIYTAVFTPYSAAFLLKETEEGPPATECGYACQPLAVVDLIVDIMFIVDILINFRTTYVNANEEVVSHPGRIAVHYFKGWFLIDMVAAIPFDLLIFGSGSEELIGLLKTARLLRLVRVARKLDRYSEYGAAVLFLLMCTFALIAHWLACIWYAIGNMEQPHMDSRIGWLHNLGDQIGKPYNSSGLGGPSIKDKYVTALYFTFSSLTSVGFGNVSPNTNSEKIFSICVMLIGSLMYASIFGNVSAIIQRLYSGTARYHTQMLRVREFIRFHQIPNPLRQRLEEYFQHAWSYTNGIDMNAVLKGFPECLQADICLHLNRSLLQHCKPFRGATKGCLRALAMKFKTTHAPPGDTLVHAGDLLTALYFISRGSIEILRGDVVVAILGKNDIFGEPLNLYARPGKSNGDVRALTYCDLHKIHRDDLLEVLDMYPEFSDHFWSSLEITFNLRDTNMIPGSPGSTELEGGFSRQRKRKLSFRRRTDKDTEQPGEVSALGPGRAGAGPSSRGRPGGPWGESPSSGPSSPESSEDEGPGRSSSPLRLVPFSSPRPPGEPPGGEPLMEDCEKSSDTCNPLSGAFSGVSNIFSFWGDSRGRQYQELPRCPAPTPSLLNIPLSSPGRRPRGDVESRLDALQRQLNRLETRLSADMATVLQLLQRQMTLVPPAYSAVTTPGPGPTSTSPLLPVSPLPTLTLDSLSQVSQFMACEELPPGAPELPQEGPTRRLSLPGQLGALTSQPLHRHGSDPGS

[27] = test system: Human immunodeficiency virus 1; test: Antiviral activity against HIV-1 harboring E138K mutant infected in human MT4 cells assessed as protection against virus-induced cytopathic effect incubated for 5 days by MTT assay; type: functional, organism-based; details: Human immunodeficiency virus 1, MT4, 120 h
[28] = biological target: T3, Cytochrome P450 3A4 (Homo sapiens, UniProt P08684); test: Inhibition of CYP3A4 in human liver microsome using midazolam as substrate preincubated with compound for 10 minutes followed NADPH addition and measured after 15 mins by LC-MS/MS analysis; type: ADME, microsomes
T3 sequence (P08684 whole entry): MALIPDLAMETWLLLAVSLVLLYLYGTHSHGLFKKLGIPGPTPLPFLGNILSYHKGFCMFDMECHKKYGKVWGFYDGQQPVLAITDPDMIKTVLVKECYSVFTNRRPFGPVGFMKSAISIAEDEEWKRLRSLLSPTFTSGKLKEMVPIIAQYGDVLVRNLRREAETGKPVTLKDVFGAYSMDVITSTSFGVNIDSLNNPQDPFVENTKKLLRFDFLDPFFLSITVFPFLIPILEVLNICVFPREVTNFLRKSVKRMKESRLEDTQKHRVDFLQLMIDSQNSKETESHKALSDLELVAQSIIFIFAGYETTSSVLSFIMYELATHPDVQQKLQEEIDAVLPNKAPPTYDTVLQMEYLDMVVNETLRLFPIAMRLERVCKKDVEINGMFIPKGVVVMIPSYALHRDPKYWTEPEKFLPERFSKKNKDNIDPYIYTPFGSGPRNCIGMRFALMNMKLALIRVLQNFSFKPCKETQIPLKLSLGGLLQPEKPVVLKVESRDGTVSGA

[29] = test system: Human immunodeficiency virus 1; test: Antiviral activity against HIV-1 harboring Y181C mutant infected in human MT4 cells assessed as protection against virus-induced cytopathic effect incubated for 5 days by MTT assay; type: functional, organism-based; details: Human immunodeficiency virus 1, MT4, 120 h
[30] = Solubility of compound incubated for 24 hrs by HPLC analysis; type: physicochemical
[31] = Solubility of compound in phosphate buffer at pH 7 incubated for 24 hrs by HPLC analysis; type: physicochemical
[32] = Acute toxicity in SPF ICR mouse assessed as lung damage at 2 mg/kg, IG measured on day 14; type: organism-based; details: in vivo, po, 336 h, time 14 day
[33] = test system: Human immunodeficiency virus 1; test: Antiviral activity against HIV-1 harboring Y188L mutant infected in human MT4 cells assessed as protection against virus-induced cytopathic effect incubated for 5 days by MTT assay; type: functional, organism-based; details: Human immunodeficiency virus 1, MT4, 120 h
[34] = biological target: T3, Cytochrome P450 3A4; test: Inhibition of CYP3A4 in human liver microsome using testosterone as substrate preincubated with compound for 10 minutes followed NADPH addition and measured after 15 mins by LC-MS/MS analysis; type: ADME, microsomes
[35] = Acute toxicity in SPF ICR mouse assessed as kidney damage at 2 mg/kg, IG measured on day 14; type: organism-based; details: in vivo, po, 336 h, time 14 day
[36] = Solubility of compound in phosphate buffer at pH 2 incubated for 24 hrs by HPLC analysis; type: physicochemical
[37] = Acute toxicity in SPF ICR mouse assessed as liver damage at 2 mg/kg, IG measured on day 14; type: organism-based; details: in vivo, po, 336 h, time 14 day
[38] = test system: Human immunodeficiency virus 1; test: Antiviral activity against HIV-1 harboring K103N mutant infected in human MT4 cells assessed as protection against virus-induced cytopathic effect incubated for 5 days by MTT assay; type: functional, organism-based; details: Human immunodeficiency virus 1, MT4, 120 h
[39] = biological target: Cytochrome P450 2C9 (Homo sapiens, UniProt P11712); test: Inhibition of CYP2C9 in human liver microsome preincubated with compound for 10 minutes followed NADPH addition and measured after 15 mins by LC-MS/MS analysis; type: ADME, microsomes
Chain of Cytochrome P450 2C9 (P11712 whole entry): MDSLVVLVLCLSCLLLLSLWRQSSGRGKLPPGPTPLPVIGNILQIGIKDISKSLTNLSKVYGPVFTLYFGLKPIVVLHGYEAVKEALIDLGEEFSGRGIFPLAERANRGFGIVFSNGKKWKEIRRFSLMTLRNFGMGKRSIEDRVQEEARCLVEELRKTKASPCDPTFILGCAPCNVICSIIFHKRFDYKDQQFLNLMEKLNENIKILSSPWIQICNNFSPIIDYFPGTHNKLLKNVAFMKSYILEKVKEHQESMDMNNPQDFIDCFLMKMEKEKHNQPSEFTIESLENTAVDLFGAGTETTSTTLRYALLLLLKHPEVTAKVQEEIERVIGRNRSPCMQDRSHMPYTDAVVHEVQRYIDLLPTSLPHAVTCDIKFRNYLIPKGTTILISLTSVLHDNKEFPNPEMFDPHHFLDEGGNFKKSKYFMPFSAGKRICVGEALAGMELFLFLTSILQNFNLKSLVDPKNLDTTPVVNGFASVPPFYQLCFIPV

Cc1cc(-c2ccc(C#N)cc2)cc(C)c1Oc1nc(NC2CCN(Cc3ccc(S(N)(=O)=O)cc3)CC2)ncc1CO
IC50 [1]: 293 nM | Activity [2]: Non-toxic | Activity [3]: Non-toxic | Activity [4]: Non-toxic | Activity [5]: Non-toxic | Activity [6]: Non-toxic | Activity [7]: Non-toxic | Activity [8]: Non-toxic | CC50 at 120 h [9]: 18.2 µM | Activity [10]: Non-toxic | IC50 [11]: 25.7 µM | Activity [12]: Non-toxic | Activity [13]: Non-toxic | IC50 [14]: 50 µM | IC50 [15]: 50 µM | EC50 [16]: 45 nM | Activity [17]: Non-toxic | Activity [18]: Non-toxic | EC50 [19]: 9 nM | solubility at 24 h [20]: < 1 µg/mL | Activity [21]: Non-toxic | selectivity ratio [22]: 6540 | EC50 [23]: 3 nM | EC50 [24]: 15 nM | Activity [25]: Non-toxic | IC50 [26]: 20 µM | EC50 [27]: 8 nM | IC50 [28]: 50 µM | EC50 [29]: 10 nM | solubility at 24 h [30]: < 1 µg/mL | solubility at 24 h [31]: < 1 µg/mL | Activity [32]: Non-toxic | EC50 [33]: 23 nM | IC50 [34]: 50 µM | Activity [35]: Non-toxic | solubility at 24 h [36]: 3520 µg/mL (≈ 5890 µM) | Activity [37]: Non-toxic | EC50 [38]: 9 nM | IC50 [39]: 17.6 µM

Source: ChEMBL document CHEMBL6078645, “Expanding the Solvent/Protein Region Occupation of the Non-Nucleoside Reverse Transcriptase Inhibitor Binding Pocket for Improved Broad-Spectrum Anti-HIV-1 Efficacy: from Rigid Phenyl-Diarylpyrimidines to Flexible Hydrophilic Piperidine-Diarylpyrimidines” (J Med Chem, 2024)
